Test results reported in the NIST ThermoML archive (doi:10.1021/acs.jced.8b00554).
Numbers after ± are expanded uncertainties.

Test: xn = mol fraction of the nth substance listed
Details: Liquid, Vibrating tube method

SMILES: CCCCCCCCC [nonane] + CCCO
- mass density (333.15 K, 6020 kPa, x2 = 0.1231): 692.22 ± 4.4 kg/m3
- mass density (333.15 K, 6020 kPa, x2 = 0.3229): 700.03 ± 4.5 kg/m3
- mass density (333.15 K, 7000 kPa, x2 = 0.2315): 697.33 ± 4.5 kg/m3
- mass density (333.15 K, 7010 kPa, x2 = 0.1231): 693.22 ± 4.4 kg/m3
- mass density (333.15 K, 7010 kPa, x2 = 0.3229): 701.03 ± 4.5 kg/m3
- mass density (333.15 K, 7010 kPa, x2 = 0.4272): 706.53 ± 4.5 kg/m3
- mass density (333.15 K, 7010 kPa, x2 = 0.7021): 728.53 ± 4.7 kg/m3
- mass density (333.15 K, 7010 kPa, x2 = 0.8941): 754.12 ± 4.8 kg/m3
- mass density (333.15 K, 8000 kPa, x2 = 0.3229): 702.03 ± 4.5 kg/m3
- mass density (333.15 K, 8010 kPa, x2 = 0.1231): 694.22 ± 4.5 kg/m3
- mass density (333.15 K, 8010 kPa, x2 = 0.7021): 729.53 ± 4.7 kg/m3
- mass density (333.15 K, 8010 kPa, x2 = 0.8941): 755.09 ± 4.8 kg/m3
- mass density (333.15 K, 8020 kPa, x2 = 0.2315): 698.33 ± 4.5 kg/m3
- mass density (333.15 K, 8020 kPa, x2 = 0.4272): 707.53 ± 4.5 kg/m3
- mass density (333.15 K, 9010 kPa, x2 = 0.2315): 699.32 ± 4.5 kg/m3
- mass density (333.15 K, 9010 kPa, x2 = 0.3229): 703.05 ± 4.5 kg/m3
- mass density (333.15 K, 9010 kPa, x2 = 0.4272): 708.53 ± 4.5 kg/m3
- mass density (333.15 K, 9010 kPa, x2 = 0.7021): 730.52 ± 4.7 kg/m3
- mass density (333.15 K, 9010 kPa, x2 = 0.8941): 756.05 ± 4.8 kg/m3
- mass density (333.15 K, 9020 kPa, x2 = 0.1231): 695.19 ± 4.5 kg/m3
- mass density (333.15 K, 10010 kPa, x2 = 0.1231): 696.17 ± 4.5 kg/m3
- mass density (333.15 K, 10010 kPa, x2 = 0.2315): 700.3 ± 4.5 kg/m3
- mass density (333.15 K, 10010 kPa, x2 = 0.3229): 704.04 ± 4.5 kg/m3
- mass density (333.15 K, 10010 kPa, x2 = 0.4272): 709.54 ± 4.5 kg/m3
- mass density (333.15 K, 10020 kPa, x2 = 0.7021): 731.49 ± 4.7 kg/m3
- mass density (333.15 K, 10020 kPa, x2 = 0.8941): 757 ± 4.8 kg/m3
- mass density (333.15 K, 11010 kPa, x2 = 0.1231): 697.14 ± 4.5 kg/m3
- mass density (333.15 K, 11010 kPa, x2 = 0.2315): 701.27 ± 4.5 kg/m3
- mass density (333.15 K, 11010 kPa, x2 = 0.3229): 705.01 ± 4.5 kg/m3
- mass density (333.15 K, 11010 kPa, x2 = 0.4272): 710.52 ± 4.5 kg/m3
- mass density (333.15 K, 11010 kPa, x2 = 0.7021): 732.46 ± 4.7 kg/m3
- mass density (333.15 K, 11010 kPa, x2 = 0.8941): 757.95 ± 4.9 kg/m3
- mass density (333.15 K, 12000 kPa, x2 = 0.1231): 698.08 ± 4.5 kg/m3
- mass density (333.15 K, 12000 kPa, x2 = 0.2315): 702.25 ± 4.5 kg/m3
- mass density (333.15 K, 12000 kPa, x2 = 0.3229): 705.98 ± 4.5 kg/m3
- mass density (333.15 K, 12010 kPa, x2 = 0.4272): 711.48 ± 4.6 kg/m3
- mass density (333.15 K, 12010 kPa, x2 = 0.8941): 758.88 ± 4.9 kg/m3
- mass density (333.15 K, 12020 kPa, x2 = 0.7021): 733.42 ± 4.7 kg/m3
- mass density (333.15 K, 13000 kPa, x2 = 0.3229): 706.94 ± 4.5 kg/m3
- mass density (333.15 K, 13000 kPa, x2 = 0.8941): 759.79 ± 4.9 kg/m3
- mass density (333.15 K, 13010 kPa, x2 = 0.1231): 699.03 ± 4.5 kg/m3
- mass density (333.15 K, 13010 kPa, x2 = 0.4272): 712.44 ± 4.6 kg/m3
- mass density (333.15 K, 13010 kPa, x2 = 0.7021): 734.37 ± 4.7 kg/m3
- mass density (333.15 K, 13020 kPa, x2 = 0.2315): 703.18 ± 4.5 kg/m3
- mass density (333.15 K, 14000 kPa, x2 = 0.3229): 707.87 ± 4.5 kg/m3
- mass density (333.15 K, 14010 kPa, x2 = 0.1231): 699.96 ± 4.5 kg/m3
- mass density (333.15 K, 14010 kPa, x2 = 0.2315): 704.11 ± 4.5 kg/m3
- mass density (333.15 K, 14010 kPa, x2 = 0.4272): 713.39 ± 4.6 kg/m3
- mass density (333.15 K, 14010 kPa, x2 = 0.7021): 735.32 ± 4.7 kg/m3
- mass density (333.15 K, 14010 kPa, x2 = 0.8941): 760.71 ± 4.9 kg/m3
- mass density (333.15 K, 15000 kPa, x2 = 0.2315): 705.02 ± 4.5 kg/m3
- mass density (333.15 K, 15010 kPa, x2 = 0.1231): 700.86 ± 4.5 kg/m3
- mass density (333.15 K, 15010 kPa, x2 = 0.3229): 708.79 ± 4.5 kg/m3
- mass density (333.15 K, 15010 kPa, x2 = 0.4272): 714.3 ± 4.6 kg/m3
- mass density (333.15 K, 15010 kPa, x2 = 0.7021): 736.23 ± 4.7 kg/m3
- mass density (333.15 K, 15010 kPa, x2 = 0.8941): 761.6 ± 4.9 kg/m3
- mass density (333.15 K, 16000 kPa, x2 = 0.4272): 715.23 ± 4.6 kg/m3
- mass density (333.15 K, 16000 kPa, x2 = 0.8941): 762.49 ± 4.9 kg/m3
- mass density (333.15 K, 16010 kPa, x2 = 0.1231): 701.75 ± 4.5 kg/m3
- mass density (333.15 K, 16010 kPa, x2 = 0.2315): 705.94 ± 4.5 kg/m3
- mass density (333.15 K, 16010 kPa, x2 = 0.3229): 709.71 ± 4.5 kg/m3
- mass density (333.15 K, 16020 kPa, x2 = 0.7021): 737.15 ± 4.7 kg/m3
- mass density (333.15 K, 17000 kPa, x2 = 0.3229): 710.61 ± 4.6 kg/m3
- mass density (333.15 K, 17010 kPa, x2 = 0.7021): 738.03 ± 4.7 kg/m3
- mass density (333.15 K, 17010 kPa, x2 = 0.8941): 763.38 ± 4.9 kg/m3
- mass density (333.15 K, 17020 kPa, x2 = 0.1231): 702.63 ± 4.5 kg/m3
- mass density (333.15 K, 17020 kPa, x2 = 0.2315): 706.85 ± 4.5 kg/m3
- mass density (333.15 K, 17020 kPa, x2 = 0.4272): 716.11 ± 4.6 kg/m3
- mass density (333.15 K, 18000 kPa, x2 = 0.3229): 711.48 ± 4.6 kg/m3
- mass density (333.15 K, 18000 kPa, x2 = 0.4272): 717 ± 4.6 kg/m3
- mass density (333.15 K, 18000 kPa, x2 = 0.8941): 764.23 ± 4.9 kg/m3
- mass density (333.15 K, 18010 kPa, x2 = 0.1231): 703.52 ± 4.5 kg/m3
- mass density (333.15 K, 18010 kPa, x2 = 0.2315): 707.71 ± 4.5 kg/m3
- mass density (333.15 K, 18010 kPa, x2 = 0.7021): 738.91 ± 4.7 kg/m3
- mass density (333.15 K, 19000 kPa, x2 = 0.1231): 704.35 ± 4.5 kg/m3
- mass density (333.15 K, 19000 kPa, x2 = 0.2315): 708.54 ± 4.5 kg/m3
- mass density (333.15 K, 19000 kPa, x2 = 0.8941): 765.08 ± 4.9 kg/m3
- mass density (333.15 K, 19010 kPa, x2 = 0.3229): 712.34 ± 4.6 kg/m3
- mass density (333.15 K, 19010 kPa, x2 = 0.4272): 717.85 ± 4.6 kg/m3
- mass density (333.15 K, 19010 kPa, x2 = 0.7021): 739.77 ± 4.7 kg/m3
- mass density (333.15 K, 20000 kPa, x2 = 0.2315): 709.37 ± 4.5 kg/m3
- mass density (333.15 K, 20000 kPa, x2 = 0.8941): 765.89 ± 4.9 kg/m3
- mass density (333.15 K, 20010 kPa, x2 = 0.7021): 740.63 ± 4.8 kg/m3
- mass density (333.15 K, 20020 kPa, x2 = 0.1231): 705.18 ± 4.5 kg/m3
- mass density (333.15 K, 20020 kPa, x2 = 0.3229): 713.17 ± 4.6 kg/m3
- mass density (333.15 K, 20020 kPa, x2 = 0.4272): 718.7 ± 4.6 kg/m3
- mass density (343.15 K, 100 kPa, x2 = 0.1231): 677.91 ± 4.3 kg/m3
- mass density (343.15 K, 100 kPa, x2 = 0.2315): 680.7 ± 4.4 kg/m3
- mass density (343.15 K, 100 kPa, x2 = 0.3229): 683.88 ± 4.4 kg/m3
- mass density (343.15 K, 100 kPa, x2 = 0.4272): 688.89 ± 4.4 kg/m3
- mass density (343.15 K, 100 kPa, x2 = 0.7021): 710.15 ± 4.5 kg/m3
- mass density (343.15 K, 100 kPa, x2 = 0.8941): 735.96 ± 4.7 kg/m3
- mass density (343.15 K, 1000 kPa, x2 = 0.2315): 681.31 ± 4.4 kg/m3
